Measurements: PubChem BioAssay (NCI)
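Cultured in 96-well plates, cells were exposed to test compound for 48 hours across five concentrations. TGI marks complete inhibition of growth.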

Legend:
Assay in all cases: DTP human tumour cell line panel, 48 h
A498 renal = test system: A498 renal
ACHN renal = test system: ACHN renal
BT-549 breast = test system: BT-549 breast
HCT-116 colon = test system: HCT-116 colon
HL-60(TB) leukemia = test system: HL-60(TB) leukemia
MDA-MB-435 = test system: MDA-MB-435
OVCAR-4 ovarian = test system: OVCAR-4 ovarian
OVCAR-8 ovarian = test system: OVCAR-8 ovarian
SK-MEL-5 melanoma = test system: SK-MEL-5 melanoma
TK-10 renal = test system: TK-10 renal

SMILES	TGI (A498 renal)	TGI (ACHN renal)	TGI (BT-549 breast)	TGI (HCT-116 colon)	TGI (HL-60(TB) leukemia)	TGI (MDA-MB-435)	TGI (OVCAR-4 ovarian)	TGI (OVCAR-8 ovarian)	TGI (SK-MEL-5 melanoma)	TGI (TK-10 renal)
CN(C)CCOc1ccc(I)cc1Cc1ccccc1	27.1 µM	24.7 µM	28.6 µM	22.4 µM	18.1 µM	15.4 µM	24.6 µM	30.6 µM	14.2 µM	25.5 µM
CC(C)Nc1[nH]c(C(=O)c2ccccc2)c(N)c1C(=S)Nc1ccccc1	> 100 µM	> 100 µM	> 100 µM	> 100 µM	> 100 µM	99.1 µM	> 100 µM	> 100 µM	74.1 µM	> 100 µM
Cc1cc2nc(N3C(=O)/C(=C/c4cccc([N+](=O)[O-])c4)N=C3c3ccccc3)sc2cc1C		> 100 µM	> 100 µM	> 100 µM	54.5 µM	36.5 µM	96.2 µM	80.2 µM	> 100 µM	> 100 µM
O=C1/C(=C\c2ccc([N+](=O)[O-])cc2)Sc2scc(-c3ccc(O)c(O)c3)[n+]21		47.5 µM		75.2 µM	8.93 µM	21.9 µM	24.7 µM	29.3 µM	13.4 µM	10.6 µM
CNNC1=NS(=O)(=O)c2cc(C)c(Cl)cc2S1	> 10 µM	> 10 µM	> 10 µM	> 10 µM	> 10 µM	> 10 µM	> 10 µM	> 10 µM	> 10 µM	> 10 µM
O=C(O)C(Cc1ccc2c(c1)CCC2)(Cc1ccc2c(c1)CCC2)C(=O)O	> 100 µM	> 100 µM	> 100 µM	> 100 µM	> 100 µM	> 100 µM	> 100 µM	> 100 µM	> 100 µM	> 100 µM
CCOc1ccc2ccccc2c1NC1=NCCO1	93.8 µM	> 100 µM		> 100 µM	49.6 µM	> 100 µM	> 100 µM	> 100 µM	> 100 µM	> 100 µM
CC[C@@H]1CN2CCC1C[C@@H]2C(O)c1ccnc2ccc(OCCN3CCN(CCOc4ccc5nccc(C(O)[C@@H]6C[C@@H]7CCN6C[C@@H]7CC)c5c4)CC3)cc12 (stereo partly drawn)	37 µM	28.8 µM	40.9 µM	28.3 µM	47.6 µM	28 µM	40.8 µM	42.6 µM	32 µM	29.1 µM
CC[C@@H](CCCC[C@@H]1CC[C@H]2CC(=O)C[C@@H]12)OC	> 100 µM	> 100 µM	> 100 µM	> 100 µM	> 100 µM	> 100 µM	> 100 µM	> 100 µM	> 100 µM	> 100 µM
COc1ccc(NC(=O)CC(=O)n2nc(C)c(N=Nc3ccc(C)c(C)c3)c2C)cc1	> 100 µM	> 100 µM	> 100 µM	> 100 µM	> 100 µM	> 100 µM	> 100 µM	> 100 µM	> 100 µM	> 100 µM
O=C1NCC2(CCNCC2)N1c1ccccc1	> 100 µM	> 100 µM		> 100 µM	> 100 µM	> 100 µM	> 100 µM	> 100 µM	> 100 µM	> 100 µM
CN1CCN(c2nc3ccccc3nc2C(=O)c2ccc(Cl)cc2)CC1	> 100 µM	> 100 µM		> 100 µM	98 µM	> 100 µM	> 100 µM	> 100 µM	52.7 µM	> 100 µM
COc1ccc2c(c1)c1nn(CCN(C)C)c3ccc4c(=O)n(CCN(C)C)c(=O)n2c4c13	0.526 µM	0.432 µM	2.6 µM	0.294 µM	0.34 µM	0.166 µM	0.0645 µM	0.175 µM	0.784 µM	0.696 µM
O=S(=O)(c1cc(Cl)ccc1Cl)N1CCN(c2ccc(Cl)c(Cl)c2)CC1	56.8 µM	95.9 µM	> 100 µM	> 100 µM	> 100 µM		32.4 µM	51.4 µM	51.5 µM	54 µM
O=C(NCCN1C(=O)CN=C(c2ccc(Cl)cc2)c2cc(Cl)ccc21)OCc1ccccc1	24.5 µM	32.1 µM	32.4 µM	24.8 µM	38.1 µM	32.9 µM	22.6 µM	38.3 µM	30.2 µM	37.3 µM
CC(=O)N1c2ccccc2C(C)(C)OC1C(Cl)(Cl)Cl (stereo not drawn)	> 100 µM	> 100 µM	81 µM	> 100 µM	36.7 µM	> 100 µM	> 100 µM	> 100 µM	53.4 µM	> 100 µM
O=[N+]([O-])c1cccc(N=C2c3ccccc3CN2c2cccc([N+](=O)[O-])c2)c1	> 100 µM	> 100 µM	> 100 µM	> 100 µM		> 100 µM	> 100 µM	> 100 µM	> 100 µM	> 100 µM
O=C1Nc2cccc3ncn(c23)C2=C1CCCC2		> 100 µM		> 100 µM	> 100 µM			> 100 µM	> 100 µM	> 100 µM
O=C1CC2CC=C[C@H]3c4cc5c(cc4C(=O)N1C23)OCO5 (stereo partly drawn)		> 50 µM		> 50 µM	> 50 µM			> 50 µM		> 50 µM
CC(=O)Oc1c(C)cc(-c2cc(C)c(OC(C)=O)c(C)c2)cc1C		> 100 µM	> 100 µM	> 100 µM	> 100 µM	10.8 µM	> 100 µM	> 100 µM	> 100 µM	91.6 µM
O=C(O)C(CS)NCc1c2ccccc2[n+]([O-])c2ccccc12 (stereo not drawn)	> 100 µM	> 100 µM		62.4 µM	57 µM		86.6 µM	> 100 µM	> 100 µM	> 100 µM
CC12CC3CC/C(=N\O)C(C1)C3(N1CCOCC1)C/C2=N/O (stereo not drawn)	> 100 µM	> 100 µM		> 100 µM	> 100 µM	> 100 µM	> 100 µM	> 100 µM	> 100 µM	
